One assay concerns the target T1, Rat SERT (Rattus norvegicus, UniProt P31652).
T1 construct: A rat brain without cerebellum (Zivic Laboratories, Inc.—Pittsburgh, Pa.) was homogenized; tissue Zivic Laboratories, Inc; host or cells: rat brain without cerebellum, membrane preparation
Description: Rat brain SERT [3H]-citalopram binding. To be noted: rat brain membranes, 0.6 nM [3H]-Citalopram, 60 min at 25° C. Here is the method:
The supernatant was removed and re-centrifuged at 15,000 rpm for 30 min. […] Membranes were incubated with 0.6 nM [^3H]-Citalopram plus/minus test compounds for 60 min at 25° C. and harvested by rapid filtration over GF/C glass fiber filters (pretreated with 0.3% polyethylenimine) followed by four washes with ice-cold buffer.

For a further assay, the target named is T2, human H3 receptor (Homo sapiens, UniProt Q9Y5N1).
T2 construct: expressed in transfected cells
T2 sequence (Q9Y5N1 whole entry): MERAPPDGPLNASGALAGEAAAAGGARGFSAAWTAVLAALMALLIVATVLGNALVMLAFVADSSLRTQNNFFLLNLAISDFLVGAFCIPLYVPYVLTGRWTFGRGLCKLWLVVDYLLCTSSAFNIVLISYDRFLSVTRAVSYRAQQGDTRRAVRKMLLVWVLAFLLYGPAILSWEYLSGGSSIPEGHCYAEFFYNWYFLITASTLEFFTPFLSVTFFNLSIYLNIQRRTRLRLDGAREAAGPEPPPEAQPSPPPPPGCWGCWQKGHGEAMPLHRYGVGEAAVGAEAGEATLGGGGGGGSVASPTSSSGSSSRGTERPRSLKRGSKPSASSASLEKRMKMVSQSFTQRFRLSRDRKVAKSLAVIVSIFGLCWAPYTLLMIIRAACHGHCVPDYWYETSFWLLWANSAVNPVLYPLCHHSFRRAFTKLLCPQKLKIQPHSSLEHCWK
Kind of assay: H3 receptor binding. To be noted: cloned human H3 receptor stably expressed in SK-N-MC cells.

Another assay deals with T3, human SERT (Homo sapiens, UniProt P31645).
T3 construct: expressed in transfected cells; host or cells: HEK293 membranes
T3 sequence (P31645 whole entry): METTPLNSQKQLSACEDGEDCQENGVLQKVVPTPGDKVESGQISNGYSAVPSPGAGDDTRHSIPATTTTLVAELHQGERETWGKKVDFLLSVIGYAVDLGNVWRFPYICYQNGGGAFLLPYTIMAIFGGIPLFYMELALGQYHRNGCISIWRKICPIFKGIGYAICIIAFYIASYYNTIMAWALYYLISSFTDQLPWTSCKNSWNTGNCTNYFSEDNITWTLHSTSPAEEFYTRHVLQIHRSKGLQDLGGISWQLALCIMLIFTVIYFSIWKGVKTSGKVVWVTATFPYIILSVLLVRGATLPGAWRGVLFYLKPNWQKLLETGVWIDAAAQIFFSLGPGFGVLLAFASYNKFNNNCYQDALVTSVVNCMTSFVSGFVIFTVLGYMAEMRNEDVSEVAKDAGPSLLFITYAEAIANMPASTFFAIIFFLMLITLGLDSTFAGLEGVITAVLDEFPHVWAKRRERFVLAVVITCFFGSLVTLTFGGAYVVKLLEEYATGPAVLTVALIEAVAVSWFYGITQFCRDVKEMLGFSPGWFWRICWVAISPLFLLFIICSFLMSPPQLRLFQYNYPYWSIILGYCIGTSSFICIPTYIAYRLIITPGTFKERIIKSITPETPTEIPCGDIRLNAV
Description: Human SERT 3H-citalopram binding. To be noted: HEK293 membranes expressing the human SERT, rt 1 h. Here is the method: Homogenized HEK293 (Human Embryonic Kidney) membranes expressing the human SERT were incubated with ^3H-citalopram (SERT) at rt for 1 h in 50 mM Tris, 120 mM NaCl, 5 mM KCl (pH 7.4). […] The membranes were washed and the radioactivity was counted as above.

The results in this text go back to US7767666B2, “Butyl and butynyl benzyl amine compounds” (Janssen Pharmaceutica NV, priority 2006, dated 2010).

The structures appear in SMILES notation.

T1 sequence (P31652 whole entry): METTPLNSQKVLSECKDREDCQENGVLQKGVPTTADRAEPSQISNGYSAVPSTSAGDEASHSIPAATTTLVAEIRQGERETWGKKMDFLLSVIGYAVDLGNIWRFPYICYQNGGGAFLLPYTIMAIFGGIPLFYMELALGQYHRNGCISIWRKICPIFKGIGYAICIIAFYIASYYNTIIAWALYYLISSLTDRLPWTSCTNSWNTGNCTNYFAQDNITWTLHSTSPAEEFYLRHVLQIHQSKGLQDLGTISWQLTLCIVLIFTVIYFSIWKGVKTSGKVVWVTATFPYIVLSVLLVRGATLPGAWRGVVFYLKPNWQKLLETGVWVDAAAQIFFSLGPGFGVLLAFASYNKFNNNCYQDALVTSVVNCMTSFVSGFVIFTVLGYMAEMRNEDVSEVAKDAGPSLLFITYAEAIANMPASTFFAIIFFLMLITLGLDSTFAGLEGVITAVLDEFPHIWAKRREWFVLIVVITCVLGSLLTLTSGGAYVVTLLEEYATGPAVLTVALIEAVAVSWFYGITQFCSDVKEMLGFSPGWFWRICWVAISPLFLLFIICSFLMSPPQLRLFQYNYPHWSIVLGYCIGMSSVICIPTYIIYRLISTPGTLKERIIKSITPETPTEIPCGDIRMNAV

`CNCc1cc(C#CCCNC2CC2)ccc1Oc1ccc(Cl)c(Cl)c1` [Example 15, Cyclopropyl-{4-[4-(3,4-dichloro-phenoxy)-3-methylaminomethyl-phenyl]-but-3-ynyl}-amine]: the Ki on Rat SERT was found to be 1.8 nM; on human H3 receptor it was 17 nM; on human SERT, 1.4 nM.

With `CNCc1cc(C#CCCN2CCN(C3CC3)CC2)ccc1Oc1ccc(SC)cc1` [Example 13, [5-[4-(4-Cyclopropyl-piperazin-1-yl)-but-1-ynyl]-2-(4-methylsulfanyl-phenoxy)-benzyl]-methyl-amine], the Ki on Rat SERT is 2 nM; at human H3 receptor, 52 nM; at human SERT, 3.5 nM.

As for `CNCc1cc(C#CCCNC2CC2)ccc1Oc1ccc(SC)cc1` [Example 14, Cyclopropyl-{4-[3-methylaminomethyl-4-(4-methylsulfanyl-phenoxy)-phenyl]-but-3-ynyl}-amine], the values for the inhibition constant (Ki) at Rat SERT, on human H3 receptor and on human SERT were 0.3 nM, 17 nM and 12 nM, respectively.

In the case of `CNCc1cc(C#CCCN2CCOCC2)ccc1Sc1ccc(Cl)cc1` [Example 31, [2-(4-Chloro-phenylsulfanyl)-5-(4-morpholin-4-yl-but-1-ynyl)-benzyl]-methyl-amine], the Ki at Rat SERT came out at 1 nM; at human H3 receptor, 32 nM.

Take `CNCc1cc(C#CCCN2CCN(C(C)C)C(=O)C2)ccc1Oc1ccc(SC)cc1` [Example 25, 1-Isopropyl-4-{4-[3-methylaminomethyl-4-(4-methylsulfanyl-phenoxy)-phenyl]-but-3-ynyl}-piperazin-2-one]: the values for the Ki at Rat SERT, on human H3 receptor and at human SERT were 1 nM, 1870 nM and 1.2 nM, respectively.

Turning to `CNCc1cc(C#CCCN(C2CC2)C2CC2)ccc1Oc1ccc(Cl)c(Cl)c1` [Example 17, N,N-Dicyclopropyl-{4-[4-(3,4-dichloro-phenoxy)-3-methylaminomethyl-phenyl]-but-3-ynyl}-amine], the Ki at Rat SERT turned out to be 40 nM; at human H3 receptor, 100 nM.

For the compound `CNCc1cc(CCCCN2CCN(C3CC3)CC2)ccc1Oc1ccc(SC)cc1` [Example 32, [5-[4-(4-Cyclopropyl-piperazin-1-yl)-butyl]-2-(4-methylsulfanyl-phenoxy)-benzyl]-methyl-amine], the Ki was determined as 0.6 nM at Rat SERT, 4.7 nM at human H3 receptor and 2 nM at human SERT.

Take `CNCc1cc(C#CCCN2CCOCC2)ccc1Sc1cc(C(F)(F)F)ccn1` [Example 36, Methyl-[5-(4-morpholin-4-yl-but-1-ynyl)-2-(4-trifluoromethyl-pyridin-2-ylsulfanyl)-benzyl]-amine]: the results for the Ki at Rat SERT and on human H3 receptor were 32 nM and 190 nM, respectively.

As to `CNCc1cc(C#CCCN2CCOCC2)ccc1Oc1ccc(C)nc1` [Example 24, Methyl-[2-(6-methyl-pyridin-3-yloxy)-5-(4-morpholin-4-yl-but-1-ynyl)-benzyl]-amine], the results for the Ki at Rat SERT, on human H3 receptor and at human SERT were 1.9 nM, 4 nM and 5 nM, respectively.

On to `CNCc1cc(C#CCCN2CCOCC2)ccc1Oc1ccc(Cl)c(Cl)c1` [Example 1, [2-(3,4-Dichloro-phenoxy)-5-(4-morpholin-4-yl-but-1-ynyl)-benzyl]-methyl-amine], for which the Ki on Rat SERT was 2.4 nM; at human H3 receptor it was 11 nM; on human SERT it was 1.8 nM.

As to `CNCc1cc(C#CCCN2CCN(C(C)C)CC2)ccc1Oc1ccc(SC)cc1` [Example 10, [5-[4-(4-Isopropyl-piperazin-1-yl)-but-1-ynyl]-2-(4-methylsulfanyl-phenoxy)-benzyl]-methyl-amine], the Ki amounted to 0.5 nM on Rat SERT, 31 nM on human H3 receptor and 13 nM at human SERT.

Regarding `CNCc1cc(C#CCCN2CCNC(=O)C2)ccc1Oc1ccc(SC)cc1` [Example 19, 4-{4-[3-Methylaminomethyl-4-(4-methylsulfanyl-phenoxy)-phenyl]-but-3-ynyl}-piperazin-2-one], the Ki was determined as 0.4 nM at Rat SERT, 864 nM on human H3 receptor and 1.6 nM on human SERT.

On to `CNCc1cc(C#CCCN2CCOCC2)ccc1Oc1ccccc1` [Example 6, Methyl-[5-(4-morpholin-4-yl-but-1-ynyl)-2-phenoxy-benzyl]-amine], for which the Ki at Rat SERT came out at 11 nM; at human SERT, 30 nM.

Take `Clc1ccc(Oc2ccc(C#CCCN3CCOCC3)cc2CNC2CC2)cc1` [Example 22, [2-(4-Chloro-phenoxy)-5-(4-morpholin-4-yl-but-1-ynyl)-benzyl]-cyclopropyl-amine]: the Ki on Rat SERT turned out to be 5 nM; at human H3 receptor it was 10 nM.

For the compound `CNCc1cc(C#CCCN2CCOCC2)ccc1Oc1cccnc1` [Example 21, Methyl-[5-(4-morpholin-4-yl-but-1-ynyl)-2-(pyridine-3-yloxy)-benzyl]-amine], the values for the Ki at Rat SERT and on human H3 receptor were 7 nM and 2 nM, respectively.

In the case of `CNCc1cc(C#CCCN2CCSCC2)ccc1Oc1ccc(Cl)c(Cl)c1` [Example 26, [2-(3,4-Dichloro-phenoxy)-5-(4-thiomorpholin-4-yl-but-1-ynyl)-benzyl]-methyl-amine], the Ki on Rat SERT turned out to be 5.7 nM; on human H3 receptor, 13 nM; at human SERT, 6.7 nM.

With `CNCc1cc(C#CCCN2CCCN(C(C)C)CC2)ccc1Oc1ccc(SC)cc1` [Example 20, [5-[4-(4-Isopropyl-[1,4]diazepan-1-yl)-but-1-ynyl]-2-(4-methylsulfanyl-phenoxy)-benzyl]-methyl-amine], the Ki turned out to be 0.7 nM at Rat SERT, 93 nM at human H3 receptor and 3.6 nM on human SERT.

For `CSc1ccc(Oc2ccc(C#CCCN3CCCCC3)cc2CN(C)C(=O)OC(C)(C)C)cc1` [Example 35, Methyl-[2-(4-methylsulfanyl-phenoxy)-5-(4-piperidin-1-yl-but-1-ynyl)-benzyl]-carbamic acid tert-butyl ester], the figures for the Ki at Rat SERT and at human H3 receptor were 24 nM and 46 nM, respectively.

Regarding `CNCc1cc(CCCCN2CCN(C(C)C)CC2)ccc1Oc1ccc(SC)cc1` [Example 33, [5-[4-(4-Isopropyl-piperazin-1-yl)-butyl]-2-(4-methylsulfanyl-phenoxy)-benzyl]-methyl-amine], the Ki was determined as 0.4 nM on Rat SERT, 5.2 nM on human H3 receptor and 1.4 nM at human SERT.

As to `CNCc1ccc(C#CCCN2CCOCC2)cc1Oc1ccc(SC)cc1` [Example 37, Methyl-[2-(4-methylsulfanyl-phenoxy)-4-(4-morpholin-4-yl-but-1-ynyl)-benzyl]-amine], the Ki came to 1.8 nM at Rat SERT, 423 nM on human H3 receptor and 3.4 nM on human SERT.

As to `CNCc1cc(C#CCCN2CCC(F)CC2)ccc1Oc1ccc(Cl)c(Cl)c1` [Example 29, {2-(3,4-Dichloro-phenoxy)-5-[4-(4-fluoro-piperidin-1-yl)-but-1-ynyl]-benzyl}-methyl-amine], the inhibitory constant (Ki) at Rat SERT worked out at 2.1 nM; on human H3 receptor, 14 nM; at human SERT, 27 nM.

Take `CNCc1cc(CCCCN2CCSCC2)ccc1Oc1ccc(SC)cc1` [Example 34, Methyl-[2-(4-methylsulfanyl-phenoxy)-5-(4-thiomorpholin-4-yl-butyl)-benzyl]-amine]: the Ki is 0.9 nM at Rat SERT, 9.7 nM on human H3 receptor and 1.9 nM on human SERT.

`CNCc1cc(C#CCCN2CCSCC2)ccc1Oc1ccc(SC)cc1` [Example 9, Methyl-[2-(4-methylsulfanyl-phenoxy)-5-(4-thiomorpholin-4-yl-but-1-ynyl)-benzyl]-amine]: the results for the Ki on Rat SERT, on human H3 receptor and on human SERT were 0.9 nM, 5.4 nM and 2.5 nM, respectively.

The Ki is the dissociation constant of the complex between target and ligand, obtained from inhibition or displacement. Low readings indicate higher affinity, high ones lower affinity.
